{"source": "patent US11919965B2", "about": "“Methods of treating multiple myeloma with bispecific anti-BCMA x anti-CD3 antibodies” (Regeneron Pharmaceuticals, Inc., priority 2019, dated 2024)", "key": {"MC38/BCMA tumors": {"tested_on": "MC38/BCMA tumors", "test": "Syngenic tumor model in CD3-humanized mice (Example 16)", "assay_type": "in vivo, mouse", "method": "(§1) To determine the in vivo efficacy of anti-BCMA×anti-CD3 bispecific antibodies (Abs), a syngenic tumor study was performed in mice expressing human CD3. C57BL/6 mice that express human CD3deg in place of murine CD3deg (CD3-humanized mice) were subcutaneously implanted with either 0.5×10^6 B16 melanoma cells that have been engineered to express full-length human BCMA (B16/BCMA cells) or 1×10^6 MC38 colon carcinoma cells that have been engineered to express full-length human BCMA (MC38/BCMA). […] The mice were administered these Abs twice more on days 4 and 7 for a total of three doses, and tumor growth was assessed throughout the experiment.\n(§2) Implantation and measurement of syngenic tumors: C57BL/6 mice that express human CD3deg in place of murine CD3deg (CD3-humanized mice) were subcutaneously implanted with either 0.5×10^6 B16F10 melanoma cells that have been engineered to express full-length human BCMA (B16/BCMA cells) or 1×10^6 MC38 colon carcinoma cells that have been engineered to express full-length human BCMA (MC38/BCMA). […] The mice were administered these Abs twice more on days 4 and 7 for a total of three doses, and tumor growth was assessed throughout the experiment.\n(§3) Calculation of syngenic tumor growth and inhibition: In order to determine tumor volume by external caliper, the greatest longitudinal diameter (length in mm) and the greatest transverse diameter (width in mm) were determined. Tumor volumes based on caliper measurements were calculated by the formula: Volume (mm^3)=(length×width^2)/2."}, "B16/BCMA tumors": {"tested_on": "B16/BCMA tumors", "test": "Syngenic tumor model in CD3-humanized mice (Example 16)", "assay_type": "in vivo, mouse", "method": "as §1, §2, §3"}, "[1]": {"tested_on": "patients with relapsed or refractory multiple myeloma", "test": "Phase 1/2 clinical study of REGN5458 monotherapy", "conditions": "for Complete response (CR) or stringent CR (sCR) / Overall response rate (ORR) / Partial response (PR) / Very good partial response (VGPR): preliminary results"}, "[2]": {"conditions": "Dose Levels 1, 2, 3 (3, 6, 12 mg; n = 24)"}, "[3]": {"conditions": "Dose Levels 4, 5 (24, 48 mg; n = 17)"}, "[4]": {"conditions": "patients with marrow plasmacytosis <50%"}}, "data": [{"substance": "REGN5458: anti-BCMA×anti-CD3 bispecific antibody: mAb21581 BCMA heavy chain, mAb7221G CD3 heavy chain and common light chain; SEQ ID NOs 126, 127, 129", "values": [{"measurement": "tumor growth", "setting": "MC38/BCMA tumors; 0.4 or 0.04 mg/kg", "value": "suppress the growth of both tumor lines in a dose-dependent manner"}, {"measurement": "Average Tumor Size (mm3) ± SEM on Day 5", "setting": "MC38/BCMA tumors; MC38/BCMA Tumor, 0.04 mg/kg", "value": "11.9 ± 2.9", "unit": "mm3"}, {"measurement": "Average Tumor Size (mm3) ± SEM on Day 10", "setting": "MC38/BCMA tumors; MC38/BCMA Tumor, 0.04 mg/kg", "value": "66.7 ± 22.5", "unit": "mm3"}, {"measurement": "Average Tumor Size (mm3) ± SEM on Day 14", "setting": "MC38/BCMA tumors; MC38/BCMA Tumor, 0.04 mg/kg", "value": "273.3 ± 115.3", "unit": "mm3"}, {"measurement": "Average Tumor Size (mm3) ± SEM on Day 18", "setting": "MC38/BCMA tumors; MC38/BCMA Tumor, 0.04 mg/kg", "value": "641.5 ± 309.8", "unit": "mm3"}, {"measurement": "Average Tumor Size (mm3) ± SEM on Day 10", "setting": "MC38/BCMA tumors; MC38/BCMA Tumor, 0.4 mg/kg", "value": "0.0 ± 0.0", "unit": "mm3"}, {"measurement": "Average Tumor Size (mm3) ± SEM on Day 14", "setting": "MC38/BCMA tumors; MC38/BCMA Tumor, 0.4 mg/kg", "value": "2.9 ± 2.9", "unit": "mm3"}, {"measurement": "Average Tumor Size (mm3) ± SEM on Day 18", "setting": "MC38/BCMA tumors; MC38/BCMA Tumor, 0.4 mg/kg", "value": "7.5 ± 7.5", "unit": "mm3"}, {"measurement": "tumor growth", "setting": "B16/BCMA tumors; 0.4 or 0.04 mg/kg", "value": "suppress the growth of both tumor lines in a dose-dependent manner"}, {"measurement": "Average Tumor Size (mm3) ± SEM on Day 5", "setting": "B16/BCMA tumors; B16/BCMA Tumor, 0.04 mg/kg", "value": "3.3 ± 2.2", "unit": "mm3"}, {"measurement": "Average Tumor Size (mm3) ± SEM on Day 10", "setting": "B16/BCMA tumors; B16/BCMA Tumor, 0.04 mg/kg", "value": "15.4 ± 12.5", "unit": "mm3"}, {"measurement": "Average Tumor Size (mm3) ± SEM on Day 14", "setting": "B16/BCMA tumors; B16/BCMA Tumor, 0.04 mg/kg", "value": "81.4 ± 49.2", "unit": "mm3"}, {"measurement": "Average Tumor Size (mm3) ± SEM on Day 5", "setting": "B16/BCMA tumors; B16/BCMA Tumor, 0.4 mg/kg", "value": "0.0 ± 0.0", "unit": "mm3"}, {"measurement": "Average Tumor Size (mm3) ± SEM on Day 10", "setting": "B16/BCMA tumors; B16/BCMA Tumor, 0.4 mg/kg", "value": "0.0 ± 0.0", "unit": "mm3"}, {"measurement": "Average Tumor Size (mm3) ± SEM on Day 14", "setting": "B16/BCMA tumors; B16/BCMA Tumor, 0.4 mg/kg", "value": "8.1 ± 4.4", "unit": "mm3"}, {"measurement": "Average Tumor Size (mm3) ± SEM on Day 18", "setting": "B16/BCMA tumors; B16/BCMA Tumor, 0.4 mg/kg", "value": "47.1 ± 17.0", "unit": "mm3"}, {"measurement": "Complete response (CR) or stringent CR (sCR)", "setting": "[1]; Dose Level 6 (96 mg; n = 8)", "value": "0% (0)"}, {"measurement": "Overall response rate (ORR)", "setting": "[1]; Dose Level 6 (96 mg; n = 8)", "value": "63% (5)"}, {"measurement": "Partial response (PR)", "setting": "[1]; Dose Level 6 (96 mg; n = 8)", "value": "0% (0)"}, {"measurement": "Very good partial response (VGPR)", "setting": "[1]; Dose Level 6 (96 mg; n = 8)", "value": "63% (5)"}, {"measurement": "Complete response (CR) or stringent CR (sCR)", "setting": "[1]; [2]", "value": "21% (5)"}, {"measurement": "Overall response rate (ORR)", "setting": "[1]; [2]", "value": "29% (7)"}, {"measurement": "Partial response (PR)", "setting": "[1]; [2]", "value": "4% (1)"}, {"measurement": "Very good partial response (VGPR)", "setting": "[1]; [2]", "value": "4% (1)"}, {"measurement": "Complete response (CR) or stringent CR (sCR)", "setting": "[1]; [3]", "value": "18% (3)"}, {"measurement": "Overall response rate (ORR)", "setting": "[1]; [3]", "value": "41% (7)"}, {"measurement": "Partial response (PR)", "setting": "[1]; [3]", "value": "0% (0)"}, {"measurement": "Very good partial response (VGPR)", "setting": "[1]; [3]", "value": "24% (4)"}, {"measurement": "objective response rate (ORR)", "setting": "[1]; dose level 6", "value": 62.5, "unit": "%"}, {"measurement": "objective response rate (ORR)", "setting": "[1]; dose levels 1 to 3", "value": 29.2, "unit": "%"}, {"measurement": "objective response rate (ORR)", "setting": "[1]; dose levels 4 and 5", "value": 41.2, "unit": "%"}, {"measurement": "observed median duration of response", "setting": "[1]; human, in vivo", "value": 6.01, "unit": "months"}, {"measurement": "complete response (CR) or stringent CR", "setting": "[1]; of responders", "value": 42.1, "unit": "%"}, {"measurement": "responders achieving at least a very good partial response (VGPR)", "setting": "[1]; of responders", "value": 95, "unit": "%"}, {"measurement": "responders with DOR ≥8 months", "setting": "[1]; of responders", "value": 36.8, "unit": "%"}, {"measurement": "responders with duration of response (DOR) ≥4 months", "setting": "[1]; of responders", "value": 63.2, "unit": "%"}, {"measurement": "ORR", "setting": "[1]; patients with extramedullary plasmacytomas (EMP)", "value": 14.3, "unit": "%"}, {"measurement": "ORR", "setting": "[1]; [4]", "value": 71.4, "unit": "%"}, {"measurement": "stringent complete response", "setting": "[1]; [4]", "value": 35.7, "unit": "%"}, {"measurement": "very good partial response", "setting": "[1]; [4]", "value": 35.7, "unit": "%"}, {"measurement": "ORR", "setting": "[1]; patients with marrow plasmacytosis ≥50%", "value": 9.1, "unit": "%"}, {"measurement": "ORR", "setting": "[1]; patients without EMP", "value": 45, "unit": "%"}, {"measurement": "complete response or stringent complete response", "setting": "[1]; patients without EMP", "value": 20, "unit": "%"}, {"measurement": "very good partial response", "setting": "[1]; patients without EMP", "value": 22.5, "unit": "%"}, {"measurement": "responders receiving ongoing treatment", "setting": "[1]; to date", "value": 74, "unit": "%"}]}]}
